Some test systems named below: HCT-116; NCI-H226; 786-0; OVCAR-3; IGROV-1; MDA-MB-435; Malme-3M; HCT-15; SR; BT-549; PC-3; M14; U-251; HT-29; TK-10; CAKI-1; SF-295; OVCAR-4; HOP-92; MDA-N.
What all share (assay): inhibition of tumour cell growth, NCI panel, 48 h

We go through seven compounds from ChEMBL document CHEMBL1201862, “PubChem BioAssay data set” (2004).

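The compound was tested at five concentrations on cells cultured in 96-well plates, with a 48-hour exposure period. At the GI50, growth is halved.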 Active and inactive are the calls of the source. No stated cut-off is given here; in the data, active = GI50 up to about 1.1 µM and inactive = higher.

As for `COC(=O)c1c(O)c(C#N)c2[nH]c3ccccc3n2c1=O`, the GI50 in the test with HCT-116, with NCI-H226, in the test on 786-0, in the test with OVCAR-3, in the test with IGROV-1 and in the test on MDA-MB-435 was > 100 µM (inactive) in each case. Also, the GI50 with Malme-3M is > 100 µM (inactive); in the test with HCT-15, greater than 100 µM; with SR, > 100 µM (inactive); in the test with BT-549, > 100 µM (inactive); with PC-3, > 100 µM (inactive); in the test with M14 it was > 100 µM (inactive). The GI50 in the test on U-251, in the test with HT-29, in the test with TK-10, in the test on CAKI-1, in the test on SF-295 and in the test on OVCAR-4 was > 100 µM (inactive) throughout. For the same compound, the GI50 in the test with HOP-92 and in the test with MDA-N was > 100 µM (inactive) in each case.
`CC(C)(C)[C@H]1CCC2(OCCO2)[C@](O)(CCCO)C1`: the GI50 in the test with HCT-116, in the test on NCI-H226, with 786-0, in the test on OVCAR-3, in the test with IGROV-1 and in the test with MDA-MB-435 was > 100 µM (inactive) each time. The GI50 in the test on Malme-3M is > 100 µM (inactive); with HCT-15 it was greater than 100 µM; in the test on SR, > 100 µM (inactive); with BT-549 it was > 100 µM (inactive); with PC-3, > 100 µM (inactive); with M14, > 100 µM (inactive). Also, the GI50 in the test with U-251, with HT-29, in the test with TK-10, in the test on CAKI-1, with SF-295 and in the test on OVCAR-4 was > 100 µM (inactive) in each case. The GI50 with HOP-92 and in the test on MDA-N was > 100 µM (inactive) throughout.
Consider `O=C1OC(=O)C2C1C(c1ccccc1[N+](=O)[O-])C=C(c1ccco1)N2c1ccncc1` (stereo not given), for which the GI50 in the test on HCT-116 was 1.83 µM (inactive); in the test with NCI-H226, 12.8 µM (inactive); with 786-0, 1.91 µM (inactive); with OVCAR-3 it was 11.9 µM (inactive); with IGROV-1 it was 2.09 µM (inactive); with MDA-MB-435, 8.39 µM (inactive). For the same compound, the GI50 in the test on Malme-3M was 25.1 µM (inactive); with HCT-15, 2.92 µM; in the test with SR, 0.679 µM (active); in the test with BT-549 it was 11.6 µM (inactive); in the test on PC-3, 13.3 µM (inactive); in the test with M14 it was 6.84 µM (inactive). Besides, the GI50 in the test on U-251 is 3.94 µM (inactive); in the test on HT-29 it was 2.57 µM (inactive); with TK-10, 3.82 µM (inactive); in the test with CAKI-1, 16 µM (inactive); in the test on SF-295, 10.3 µM (inactive); in the test with OVCAR-4, 15.2 µM (inactive). Besides, the GI50 in the test on HOP-92 was 3.68 µM (inactive); in the test on MDA-N, 4.52 µM (inactive).
For `Clc1nc(Cl)c(Cl)c(Cl)n1`, the GI50 with HCT-116 is 18.9 µM (inactive); with NCI-H226, 20.7 µM (inactive); in the test on 786-0, 19.7 µM (inactive); in the test with OVCAR-3, 13.9 µM (inactive); in the test on IGROV-1, 19.9 µM (inactive); in the test on MDA-MB-435, 21.8 µM (inactive). Also, the GI50 with Malme-3M is 16 µM (inactive); in the test on HCT-15, 19.1 µM; with SR, 5.96 µM (inactive); in the test with BT-549 it was 20.6 µM (inactive); in the test on PC-3, 16.6 µM (inactive); in the test with M14, 17 µM (inactive). Besides, the GI50 in the test with U-251 was 16.7 µM (inactive); in the test with HT-29, 20.7 µM (inactive); in the test on TK-10 it was 20.9 µM (inactive); in the test on CAKI-1, 17.8 µM (inactive); with SF-295 it was 19.3 µM (inactive); in the test with OVCAR-4, 23 µM (inactive). For the same compound, the values for the GI50 in the test with HOP-92 and with MDA-N were 25.5 µM (inactive) and 19.1 µM (inactive), respectively.
In the case of `COc1ccc(N2C(=O)/C(=C/c3ccc(N(CCC#N)CCC#N)cc3)N=C2c2ccccc2)cc1`, the GI50 in the test with HCT-116, in the test with NCI-H226, in the test on 786-0, in the test with OVCAR-3, in the test on IGROV-1 and in the test on MDA-MB-435 was > 100 µM (inactive) each time. Besides, the GI50 was > 100 µM (inactive) in the test with Malme-3M; greater than 100 µM with HCT-15; > 100 µM (inactive) with SR; > 100 µM (inactive) with BT-549; > 100 µM (inactive) with PC-3; > 100 µM (inactive) with M14. Further, the GI50 in the test with U-251 was > 100 µM (inactive); in the test on HT-29 it was > 100 µM (inactive); with TK-10, > 100 µM (inactive); in the test on CAKI-1, 6.19 µM (inactive); with SF-295, > 100 µM (inactive); with OVCAR-4, > 100 µM (inactive). For the same compound, the GI50 in the test on HOP-92 and in the test with MDA-N was > 100 µM (inactive) in each case.
Take `N=C(N)C1CN(CCCCCCCCCCN2CC(C(=N)N)C(O)=NC2=O)C(=O)N=C1O` (stereo not given): the GI50 with HCT-116, with NCI-H226, with 786-0, in the test on OVCAR-3, with IGROV-1 and with MDA-MB-435 was > 10 µM (inactive) throughout. Further, the GI50 with Malme-3M was > 10 µM (inactive); in the test on HCT-15 it was greater than 10 µM; in the test on SR, > 10 µM (inactive); with BT-549, > 10 µM (inactive); in the test on PC-3, > 10 µM (inactive); in the test on M14, > 10 µM (inactive). Also, the GI50 with U-251, in the test with HT-29, with TK-10, with CAKI-1, in the test on SF-295 and in the test with OVCAR-4 was > 10 µM (inactive) each time. Further, the GI50 in the test with HOP-92 and in the test on MDA-N was > 10 µM (inactive) throughout.
With `COc1cc2c(cc1OC)-c1cc3ccc(OC)c(OC)c3c[n+]1CC2` [PALMATINE CHLORIDE], the GI50 is > 100 µM (inactive) in the test with HCT-116; > 100 µM (inactive) in the test on NCI-H226; > 100 µM (inactive) with 786-0; 39.9 µM (inactive) with OVCAR-3; > 100 µM (inactive) in the test with IGROV-1; > 100 µM (inactive) in the test on MDA-MB-435. For the same compound, the GI50 with Malme-3M is > 100 µM (inactive); in the test with HCT-15, greater than 100 µM; with SR, > 100 µM (inactive); with BT-549, > 100 µM (inactive); with PC-3, > 100 µM (inactive); with M14, > 100 µM (inactive). For the same compound, the GI50 in the test with U-251 was 27.9 µM (inactive); with HT-29, > 100 µM (inactive); in the test with TK-10, > 100 µM (inactive); in the test with CAKI-1, > 100 µM (inactive); in the test on SF-295, > 100 µM (inactive); in the test with OVCAR-4, > 100 µM (inactive). The GI50 in the test on HOP-92 and in the test on MDA-N was > 100 µM (inactive) each time.
